In ChEMBL document CHEMBL1141555, “Synthesis and biological activity of piperazine and diazepane amides that are histamine H3 antagonists and serotonin reuptake inhibitors” (Bioorg Med Chem Lett, 2008):

What was measured:
Type in all cases: ADME, organism-based
[1] = Drug level in rat plasma at 10 mg/kg, po; parameters: dose 10 mg/kg, route oral
[2] = Bioavailability in rat; settings: in vivo
[3] = Volume of distribution at steady state in rat; settings: in vivo, read-out: Vdss
[4] = Clearance in rat; settings: in vivo
[5] = Drug level in rat brain at 10 mg/kg, po; parameters: dose 10 mg/kg, route oral
[6] = Half life in iv dosed rat; settings: in vivo

Cmax [1]: > 1000 nM
bioavailability [2]: 93%
Vd [3]: 13 L/kg
clearance [4]: 10.2 mL/min/kg
Cmax [5]: > 1000 nM
half-life [6]: 16.1 h
SMILES: CNCc1cc(C(=O)N2CCN(C3CC3)CC2)ccc1Oc1ccc(Cl)c(Cl)c1
